{"source": "paper PMC4357015", "about": "“Structure, Function and Inhibition of the Phosphoethanolamine Methyltransferases of the Human Malaria Parasites Plasmodium vivax and Plasmodium knowlesi” (Scientific Reports, 2015)", "tested_on": "PC biosynthesis in pem1Δpem2Δ-pYES2.1-PvPMT", "assay": "phospholipid analysis of yeast pem1Δpem2Δ strain expressing PvPMT", "assay_type": "cell-based", "settings": "200 μM AQ", "method": "Figure 6 PMT-dependent inhibition of PC biosynthesis by AQ and NSC158011. To assess the effect of AQ on phospholipid metabolism, […] and wild-type strains were grown in minimal medium containing 4% galactose and 2 mM ethanolamine in the absence or presence of 200 μM AQ, lipids were extracted and separated by TLC (A). Each lipid class was scrapped off the TLC plate and quantified by measuring phosphorus (B). The effect of NSC158011 on phospholipid biosynthesis was determined by [33P] orthophosphoric acid labeling as described in Material and Methods. Lipids were separated by TLC (C) and quantified by liquid scintillation spectrometry (D). For all assays, data were used to calculate the PC/PI + PA ratio. The data are represented as the mean ± S.D. of at least two independent experiments.\nBY4741-pYes2.1 (wild-type) strains and the pem1Δpem2Δ strains harboring pYES2.1 vector, pYES2.1-PkPMT, pYES2.1-PvPMT or pYES2.1-PfPMT were pre-grown to mid-log phase at 30°C in SG-URA medium supplemented with Etn (2 mM) and Cho (2 mM). […] Each lipid class was excised from the plate and quantified by measuring phosphorus. […] After the growth, lipids were extracted and analyzed as described above. […] The resolved radioactive lipids were visualized by Phosphorimager (GE Typhoon) and quantified by liquid scintillation spectrometry as described."}
{"smiles": "CCN(CC)Cc1cc(Nc2ccnc3cc(Cl)ccc23)ccc1O", "note": "[AQ, amodiaquine]", "values": [{"measurement": "effect on the synthesis of PE", "result": "little to no effect"}]}
